The test system of this assay is Pseudomonas aeruginosa (PAO1). The assay is described as follows: MIC100 determination against the type strain of Pseudomonas aeruginosa (PAO1). The settings on record: for MIC: Pseudomonas aeruginosa. Type of assay: cell-based. Here is the method: The MIC100 using cysteamine, oxidised cysteamine and cystamine against the type strain of Pseudomonas aeruginosa (PAO1) was determined. Cysteamine and ‘oxidised’ cysteamine (containing some cystamine) were consistently equivalent at either 250 μg/ml or (as shown in the summary table below) 500 μg/ml. We oxidised the cysteamine by leaving the powder exposed to the air (in a sterile environment) for 5 days—during which time it changes in appearance (turning from an off white crystalline morphology to more of a white powder). It often also accrues water as it is hygroscopic and can also react with air to produce water.

The mark [1] stands for this setting: PAO1, in CA-MHB, three replicates, repeated three times, read-out: MIC100 against PAO1 in CA-MHB.
[2] abbreviates: PAO1, in MHB, three replicates, repeated three times, read-out: MIC100 against PAO1 in MHB.

In brackets after ≈: the same amount, converted by molar mass. Counter-ions that a name gives are not always drawn. Like-named read-outs stand apart in the source and are kept apart here.

Consider `NCCS` [Cysteamine, cysteamine], for which the MIC runs as follows: under setting [1], 500 µg/mL (≈ 6.48 mM); under setting [2], 500 µg/mL (≈ 6.48 mM); (PAO1, text statement, medium not stated, consistently either 250 or 500 across experiments, read-out: MIC100 against PAO1) 250 µg/mL (≈ 3.24 mM). Besides, where the note is “medium not stated, consistently either 250 or 500 across experiments”, the “MIC100 against PAO1” value stood at 500 µg/mL (≈ 6.48 mM).
In the case of `NCCSSCCN` [Cystamine HCl, cystamine], the “antibacterial activity (in words)” value (PAO1, oxidised cysteamine compared with fresh cysteamine) was “shown to be antibacterial”. For the same compound, the MIC runs as follows: under setting [1], 1000 µg/mL; under setting [2], 1000 µg/mL.

Values taken from patent US20160106689A1, “USE” (Novabiotics Limited, priority 2014, published 2016).
